# Measured values: patent US4742045A, “Glycopeptide antibiotics” (SmithKline Beckman Corporation, priority 1986, dated 1988)
# Columns and labels:
# [1] = test system: S. aureus; experiment: mice infected intraperitoneally, dosed 1 hr after infection, ED50; format: in vivo; settings: antibiotic i.v. 1 hr post infection
# Experimental: (§1) The in vivo activity of the CWI-785 complex and its components and hydrolysis products was confirmed by administering selected CWI-785 antibiotics to mice infected with various gram-positive pathogens. In one representative assay, in which mice infected intraperitoneally with 46.8 LD50 's of S. aureus (strain 1, Tables 1 and 2) were dosed once, subcutaneously one hour after infection, the following ED50 's (mg/kg) were observed: CWI-785B: 2.4, CWI-785C: 3.1, CWI-785: 3.8, HPB3: 0.9, vancomycin: 0.7. In a second representative assay carried out as above except that mice were infected with 3.17 LD50 's of S. faecalis (strain 9, Table 2), the following ED50 's were observed: HPB3 hydrochloride: 1.6, HPB4 hydrochloride: 1.6, vancomycin: 2.2, teicoplanin: 1.3.
# (§2) In Table 6, below, is shown the ED50 in mg/kg of HPB4 in comparison to vancomycin and teicoplanin. Mice were injected i.p. with the indicated organism and then i.v., 1 hr post infection, with the indicated antibiotic.
# [2] = test system: S. faecalis; experiment: as above; format: in vivo
# Experimental: as §1, §2
# [3] = test system: Coag-neg. Staphylococci; experiment: MIC against an expanded panel; format: cell-based; settings: Table 4, Coag-neg. Staphylococci (24 strains)
# From the text: (§3) The number of strains tested is shown in parentheses below each organism. The average MIC is reported in μg/ml.
# [4] = test system: Group A Strep.; experiment: MIC against an expanded panel; format: cell-based; settings: Table 4, Group A Strep. (6 strains)
# From the text: as §3
# [5] = test system: Viridans; experiment: MIC against an expanded panel; format: cell-based; settings: Table 4, Viridans (2 strains)
# From the text: as §3
# [6] = test system: Group B Strep.; experiment: MIC against an expanded panel; format: cell-based; settings: Table 4, Group B Strep. (4 strains)
# From the text: as §3
# [7] = test system: JK Diptheroids; experiment: MIC against an expanded panel; format: cell-based; settings: Table 4, JK Diptheroids (19 strains)
# From the text: as §3
# [8] = test system: STAPH. AUREUS HH 127; experiment: prophylactic activity, dosing preinfection; format: in vivo, mice
# [9] = test system: Streptococcus pyogenes; experiment: standard microtiter assay, minimum inhibitory concentration; format: cell-based; settings: Table 2 test organism 11, Streptococcus pyogenes
# From the text: Representative results of standard microtiter assays are reported in Tables 1, 2 and 3 which follow, as the minimum inhibitory concentration of antibiotic (μg/ml).
# In Table 1, test organisms 1-13 were different strains of Staphylococcus aureus, and 14-16 were different strains of Staphylococcus epidermidis. In Table 2, test organisms 1-5 were different strains of S. aureus; 6, 8, 12 and 14 were different strains of S. epidermidis; 7 was a Staphylococcus haemolyticus; 9 and 10 were different strains of Streptococcus faecalis; 11 was a Streptococcus pyogenes; and 13 was a Staphylococcus saprophyticus. In Table 3, test organisms 1-3 were different strains of S. aureus; 4 and 6 were different strains of S. epidermidis; 5 was a S. haemolyticus and 7 and 8 were different strains of Streptococcus faecalis. Except where individual components are indicated, the CWI-785 antibiotic employed was the CWI-785 complex; in some cases, HCl salts of the CWI-785 antibiotic were employed.
# [10] = test system: S. epidermidis; experiment: mice infected i.p., antibiotic i.v. 1 hr post infection, ED50; format: in vivo; settings: S. epidermidis 2479 (>1000 × LD50) i.p., antibiotic i.v. 1 hr post infection
# Experimental: as §2
# [11] = test system: Staphylococcus saprophyticus; experiment: standard microtiter assay, minimum inhibitory concentration; format: cell-based; settings: for MIC: Table 5 organism 6 S. saprophyticus
# Procedure, shortened: (§4)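 Broth microtiter MIC (μg/ml) of CWI-785 antibiotic, as complex, individual components or HCl salts, against several staphylococcal strains. Some assays run without serum or in 50% human or 50% mouse serum.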
# [12] = test system: Staphylococcus haemolyticus; experiment: as above; format: cell-based; settings: for MIC: Table 5 organism 3 S. haemolyticus
# Procedure, shortened: as §4
# [13] = test system: Staphylococcus epidermidis; experiment: as above; format: cell-based
# Procedure, shortened: as §4
# [14] = test system: Streptococcus faecalis; experiment: as above; format: cell-based
# Procedure, shortened: (§5)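 Standard microtiter broth assays, with MIC reported in μg/ml and averaged over several strains per species. The CWI-785 complex was tested, in some cases as HCl salts. Some runs used no serum, 50% human serum or 50% mouse serum.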
# [15] = test system: Staphylococcus aureus; experiment: as above; format: cell-based; settings: for MIC: Table 5 organism 1 S. aureus
# Procedure, shortened: as §5
# [16] = Table 4, Strep. faecalis (12 strains)
# [17] = Table 4, S. aureus (30 strains)
substance,measurement,setting,value
teicoplanin,ED50,[1]; S. aureus 2620 (24 × LD50) i.p.,6.0 mg/kg
same,ED50,[1]; S. aureus HH 127 (35 × LD50) i.p.,2.5 mg/kg
same,ED50,"[2]; S. faecalis 34358 (9 × LD50) i.p., antibiotic i.v. 1 hr post infection",1.7 mg/kg
same,ED50,"[2]; mice infected with 3.17 LD50's of S. faecalis (strain 9, Table 2), dosed once subcutaneously one hour after infection",1.3 mg/kg
same,MIC50,[3],12.5 µg/mL
same,MIC RANGE,[3],0.8 to 25 µg/mL
same,MIC50,[4],<= 0.025 μg/ml
same,MIC RANGE,[4],<0.025 to 0.4 µg/mL
same,MIC RANGE,[5],0.05 to 0.1 µg/mL
same,MIC RANGE,[6],0.1 to 1.6 µg/mL
same,MIC50,[7],1.6 µg/mL
same,MIC RANGE,[7],0.2 to 3.1 µg/mL
same,ED50,"[8]; Table 8, vs Staph. aureus HH 127 (I.V.)",0.405 mg/kg
same,PERCENT SURVIVAL,"[8]; Table 8: 40 mg/kg (I.V.), 6 hr preinfection",100%
same,minimum inhibitory concentration,[9],0.2 µg/mL
same,ED50,[10],< 1.25 mg/kg
same,minimum inhibitory concentration,"[11]; Table 2 test organism 13, Staphylococcus saprophyticus",1.6 µg/mL
same,MIC,[11]; 50% Hum. Serum,12.5 µg/mL
same,MIC,[11]; 50% Mse. Serum,1.6 µg/mL
same,MIC,[11]; No Serum,1.6 µg/mL
same,minimum inhibitory concentration,"[12]; Table 2 test organism 7, Staphylococcus haemolyticus",12.5 µg/mL
same,MIC,[12]; 50% Hum. Serum,50.0 µg/mL
same,MIC,[12]; 50% Mse. Serum,50.0 µg/mL
same,MIC,[12]; No Serum,12.5 µg/mL
same,minimum inhibitory concentration,"[13]; Table 1 test organism 14, S. epidermidis strain",1.6 µg/mL
same,minimum inhibitory concentration,"[13]; Table 1 test organism 15, S. epidermidis strain",12.5 µg/mL
same,minimum inhibitory concentration,"[13]; Table 1 test organism 16, S. epidermidis strain",6.3 µg/mL
same,minimum inhibitory concentration,"[13]; Table 2 test organism 6, S. epidermidis strain",12.5 µg/mL
same,minimum inhibitory concentration,"[13]; Table 2 test organism 8, S. epidermidis strain",12.5 µg/mL
same,minimum inhibitory concentration,"[13]; Table 2 test organism 12, S. epidermidis strain",12.5 µg/mL
same,minimum inhibitory concentration,"[13]; Table 2 test organism 14, S. epidermidis strain",3.1 µg/mL
same,MIC,"[13]; Table 5 organism 2 S. epidermidis, 50% Hum. Serum",50.0 µg/mL
same,MIC,"[13]; Table 5 organism 2 S. epidermidis, 50% Mse. Serum",50.0 µg/mL
same,MIC,"[13]; Table 5 organism 2 S. epidermidis, No Serum",12.5 µg/mL
same,MIC,"[13]; Table 5 organism 4 S. epidermidis, 50% Hum. Serum",50.0 µg/mL
same,MIC,"[13]; Table 5 organism 4 S. epidermidis, 50% Mse. Serum",25.0 µg/mL
same,MIC,"[13]; Table 5 organism 4 S. epidermidis, No Serum",12.5 µg/mL
same,MIC,"[13]; Table 5 organism 5 S. epidermidis, 50% Hum. Serum",> 100 µg/mL
same,MIC,"[13]; Table 5 organism 5 S. epidermidis, 50% Mse. Serum",<= 0.1 μg/ml
same,MIC,"[13]; Table 5 organism 5 S. epidermidis, No Serum",12.5 µg/mL
same,minimum inhibitory concentration,"[14]; Table 2 test organism 9, Streptococcus faecalis strain",< 0.1 µg/mL
same,minimum inhibitory concentration,"[14]; Table 2 test organism 10, Streptococcus faecalis strain",< 0.1 µg/mL
same,MIC50,[14]; [16],<= 0.1 μg/ml
same,MIC RANGE,[14]; [16],<=0.1-0.2 μg/ml
same,MBC50,"[14]; Table 4, Strep. faecalis MBC50",6.3 µg/mL
same,MBC RANGE,"[14]; Table 4, Strep. faecalis MBC50 column",1.6 to 25 µg/mL
same,MIC,"[14]; Table 5 organism 7 S. faecalis, 50% Hum. Serum",6.3 µg/mL
same,MIC,"[14]; Table 5 organism 7 S. faecalis, 50% Mse. Serum",1.6 µg/mL
same,MIC,"[14]; Table 5 organism 7 S. faecalis, No Serum",<= 0.1 μg/ml
same,MIC,"[14]; Table 5 organism 8 S. faecalis, 50% Hum. Serum",6.3 µg/mL
same,MIC,"[14]; Table 5 organism 8 S. faecalis, 50% Mse. Serum",3.1 µg/mL
same,MIC,"[14]; Table 5 organism 8 S. faecalis, No Serum",<= 0.1 μg/ml
same,minimum inhibitory concentration,"[15]; Table 1 test organism 1, S. aureus strain",1.6 µg/mL
same,minimum inhibitory concentration,"[15]; Table 1 test organism 2, S. aureus strain",1.6 µg/mL
same,minimum inhibitory concentration,"[15]; Table 1 test organism 3, S. aureus strain",3.1 µg/mL
same,minimum inhibitory concentration,"[15]; Table 1 test organism 4, S. aureus strain",1.6 µg/mL
same,minimum inhibitory concentration,"[15]; Table 1 test organism 5, S. aureus strain",1.6 µg/mL
same,minimum inhibitory concentration,"[15]; Table 1 test organism 6, S. aureus strain",1.6 µg/mL
same,minimum inhibitory concentration,"[15]; Table 1 test organism 7, S. aureus strain",3.1 µg/mL
same,minimum inhibitory concentration,"[15]; Table 1 test organism 8, S. aureus strain",6.3 µg/mL
same,minimum inhibitory concentration,"[15]; Table 1 test organism 9, S. aureus strain",6.3 µg/mL
same,minimum inhibitory concentration,"[15]; Table 1 test organism 10, S. aureus strain",6.3 µg/mL
same,minimum inhibitory concentration,"[15]; Table 1 test organism 11, S. aureus strain",3.1 µg/mL
same,minimum inhibitory concentration,"[15]; Table 1 test organism 12, S. aureus strain",3.1 µg/mL
same,minimum inhibitory concentration,"[15]; Table 1 test organism 13, S. aureus strain",0.8 µg/mL
same,minimum inhibitory concentration,"[15]; Table 2 test organism 1, S. aureus strain",3.1 µg/mL
same,minimum inhibitory concentration,"[15]; Table 2 test organism 2, S. aureus strain",0.8 µg/mL
same,minimum inhibitory concentration,"[15]; Table 2 test organism 3, S. aureus strain",0.4 µg/mL
same,minimum inhibitory concentration,"[15]; Table 2 test organism 4, S. aureus strain",3.1 µg/mL
same,minimum inhibitory concentration,"[15]; Table 2 test organism 5, S. aureus strain",1.6 µg/mL
same,MIC50,[15]; [17],3.1 µg/mL
same,MIC RANGE,[15]; [17],1.6 to 6.3 µg/mL
same,MIC,[15]; 50% Hum. Serum,6.3 µg/mL
same,MIC,[15]; 50% Mse. Serum,25.0 µg/mL
same,MIC,[15]; No Serum,3.1 µg/mL
